According to article PMC3392537 (Neuropharmacology, 2012):

What was measured:
[1] = target: α3(2)β4(2)α5 (β4–6–α3 concatamer + α5) (Homo sapiens, UniProt P30926+P32297); test: two-electrode voltage clamp, Xenopus oocytes; type: cell-based
[2] = target: rat α3β4 (Rattus norvegicus, UniProt P04757+P12392); test: two-electrode voltage clamp, Xenopus oocytes; type: cell-based
rat α3β4, sequence (P04757 26-499): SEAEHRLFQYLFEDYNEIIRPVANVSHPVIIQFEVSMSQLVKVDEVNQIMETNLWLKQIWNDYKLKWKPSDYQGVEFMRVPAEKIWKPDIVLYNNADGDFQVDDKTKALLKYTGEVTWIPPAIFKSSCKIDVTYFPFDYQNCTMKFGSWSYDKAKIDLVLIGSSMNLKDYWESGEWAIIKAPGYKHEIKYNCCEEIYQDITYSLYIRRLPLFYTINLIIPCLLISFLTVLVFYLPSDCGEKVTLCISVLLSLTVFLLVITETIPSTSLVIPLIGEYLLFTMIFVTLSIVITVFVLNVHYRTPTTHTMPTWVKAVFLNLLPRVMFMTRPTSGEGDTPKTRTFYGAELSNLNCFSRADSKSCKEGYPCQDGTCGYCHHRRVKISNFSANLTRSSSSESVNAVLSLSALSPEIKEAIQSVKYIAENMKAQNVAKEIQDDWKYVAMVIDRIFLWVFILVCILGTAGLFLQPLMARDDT
rat α3β4, sequence (P12392 21-495): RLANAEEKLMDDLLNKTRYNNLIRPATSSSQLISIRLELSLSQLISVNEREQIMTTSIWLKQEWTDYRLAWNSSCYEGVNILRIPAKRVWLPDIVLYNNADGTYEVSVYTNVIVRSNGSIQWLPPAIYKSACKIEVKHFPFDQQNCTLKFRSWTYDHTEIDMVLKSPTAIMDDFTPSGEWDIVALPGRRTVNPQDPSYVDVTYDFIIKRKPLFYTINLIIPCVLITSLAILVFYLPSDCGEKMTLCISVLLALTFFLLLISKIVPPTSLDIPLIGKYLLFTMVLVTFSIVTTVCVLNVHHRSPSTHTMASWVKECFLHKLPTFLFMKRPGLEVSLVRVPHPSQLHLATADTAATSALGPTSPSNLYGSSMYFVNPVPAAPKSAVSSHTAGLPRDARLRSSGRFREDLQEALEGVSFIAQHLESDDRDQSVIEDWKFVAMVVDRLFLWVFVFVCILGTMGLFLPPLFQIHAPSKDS

α3(2)β4(2)α5 (β4–6–α3 concatamer + α5), sequence (P32297 32-505): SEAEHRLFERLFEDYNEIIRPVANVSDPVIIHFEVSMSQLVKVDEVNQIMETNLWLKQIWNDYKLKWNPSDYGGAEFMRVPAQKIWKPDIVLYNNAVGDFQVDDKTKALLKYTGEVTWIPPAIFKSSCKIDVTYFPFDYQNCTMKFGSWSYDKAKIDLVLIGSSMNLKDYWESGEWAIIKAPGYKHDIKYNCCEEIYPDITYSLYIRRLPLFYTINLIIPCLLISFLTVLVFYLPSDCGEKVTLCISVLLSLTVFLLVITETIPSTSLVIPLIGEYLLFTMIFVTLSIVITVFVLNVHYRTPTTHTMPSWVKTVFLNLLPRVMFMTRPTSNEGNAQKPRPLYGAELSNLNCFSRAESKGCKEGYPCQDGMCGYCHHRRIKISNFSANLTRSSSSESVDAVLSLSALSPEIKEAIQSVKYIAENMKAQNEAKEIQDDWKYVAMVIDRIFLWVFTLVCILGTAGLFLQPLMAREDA
α3(2)β4(2)α5 (β4–6–α3 concatamer + α5), sequence (P30926 22-498): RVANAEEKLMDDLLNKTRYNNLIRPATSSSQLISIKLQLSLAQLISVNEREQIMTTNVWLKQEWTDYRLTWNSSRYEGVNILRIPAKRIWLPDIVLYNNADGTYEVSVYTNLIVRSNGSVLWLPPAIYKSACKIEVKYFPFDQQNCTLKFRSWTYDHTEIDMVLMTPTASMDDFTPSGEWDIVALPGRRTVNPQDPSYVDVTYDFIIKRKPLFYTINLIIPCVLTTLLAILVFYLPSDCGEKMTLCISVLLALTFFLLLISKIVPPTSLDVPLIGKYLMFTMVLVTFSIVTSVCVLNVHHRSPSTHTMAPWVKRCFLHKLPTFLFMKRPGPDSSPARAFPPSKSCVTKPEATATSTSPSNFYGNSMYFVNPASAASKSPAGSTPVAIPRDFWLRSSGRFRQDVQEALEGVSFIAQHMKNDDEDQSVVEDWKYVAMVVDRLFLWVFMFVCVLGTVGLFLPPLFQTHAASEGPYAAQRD
α3(2)β4(2)α5 (β4–6–α3 concatamer + α5), sequence (P30532 23-468 partner): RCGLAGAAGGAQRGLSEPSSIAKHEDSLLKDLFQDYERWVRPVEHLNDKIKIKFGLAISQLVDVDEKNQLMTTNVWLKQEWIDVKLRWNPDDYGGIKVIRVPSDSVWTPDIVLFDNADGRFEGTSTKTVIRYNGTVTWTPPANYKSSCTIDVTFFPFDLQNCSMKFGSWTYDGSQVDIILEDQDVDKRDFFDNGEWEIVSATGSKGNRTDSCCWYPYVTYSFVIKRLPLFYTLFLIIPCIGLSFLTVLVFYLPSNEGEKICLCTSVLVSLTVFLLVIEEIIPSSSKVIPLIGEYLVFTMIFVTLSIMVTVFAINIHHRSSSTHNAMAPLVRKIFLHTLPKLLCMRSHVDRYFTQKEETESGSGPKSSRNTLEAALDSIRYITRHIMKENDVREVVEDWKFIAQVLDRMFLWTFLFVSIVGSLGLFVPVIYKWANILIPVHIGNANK

SMILES	IC50 [1]	EC50 [2]
COc1ccc(C=C2CCCN=C2c2cccnc2)c(OC)c1 [GTS-21, 3-(2,4dimethoxybenzylidene)anabaseine]	9.17 ± 1.08 µM	
O=c1cccc2n1C[C@@H]1CNC[C@H]2C1 [cytisine]		520 ± 50 µM
c1cnc2cc3c(cc2n1)C1CNCC3C1 [varenicline]		28 ± 3.2 µM
